Test results from patent US20240309060A1, “POLYPEPTIDE BAX/NPM INHIBITORS” (TRUSTEES OF BOSTON UNIVERSITY, priority 2023, published 2024).
Entries after “also recorded” stand apart in the source; their conditions may differ. Blank lines part the entries; values can stand above or below the substance they belong to. Square brackets hold non-standard residues; d marks the D form. βAla = NCCC(=O)O

Key:
[1] = biological target: human NPM1 (Homo sapiens, UniProt P06748); assay: Surface plasmon resonance (SPR) binding of peptides to human NPM1; conditions: human NPM1, FIG. 14
Excerpt: FIG. 14 depicts a table of the association rate, dissociation rate and the calculated equilibrium dissociation constant for 10 representative therapeutic peptides as measured by Surface Plasmon Resonance (SPR). Mean rates are derived from at least three different peptide concentrations at levels below saturation with human NPM1. Cell survival data are normalized to the negative control (a GFP fragment of similar size to the therapeutic peptides) and represent the mean of at least 3 separate experiments.
FIG. 15 depicts an on-off rate map. A graph of the off-rate (x-axis) and on-rate (y-axis) of 10 representative peptides from different sets of modified peptides. Diagonal dash-lines represent the equilibrium dissociation constant (KD) estimates the NPM1 binding affinity for each peptide based on the distance to the lines.
The 3D helical wheel projection scan predicted that 5 of 6 peptide residues (except for L185) with intermediate effects on post-ischemic cell survival cluster in a single surface domain (FIGS. 6 and 7). These surface residues are likely regulating the binding affinity Kd) between the therapeutic peptide and NPM1, the human target protein. Since binding affinity (Kd) between the peptide drug and NPMB1 partly predicts its efficacy, a high throughput, quantitative surface plasmon resonance (SPR) assay was developed.
SPR was measured for 10 novel polypeptides with select single or double mutations. Both the measured peptide “on” and “off” rates for binding human NPM1 markedly differed (FIG. 15). […] For most modified peptides, greater protection against ischemic stress positively correlated with a low Kd. […] Overall, SPR data combined with cell survival data adequately informs the selection of therapeutic peptides based on the quantifiable effects of R group modifications on these parameters. The combination of SPR binding affinity and cell survival data in vitro effectively rank orders therapeutic peptides for in vivo testing in animals.

[2] = test system: primary murine proximal tubule epithelial cells (PTEC); assay: MTT cell survival assay of kidney cells after ischemic stress in vitro induced by metabolic inhibitors; format: cell-based; conditions: for Effect of the residue (single alanine substitution) on cytoprotection / cell survival after ischemic stress: alanine scanning of NPMB1, PTEC, FIG. 2; for Degree of cytoprotection during ischemic stress: alanine scan and pro-helical mutations; for Protection of primary kidney proximal tubule cells from ischemic stress (relative kidney cell survival rate): 70 min ischemic stress, metabolic inhibitors, vs non-specific GFP fragment, normalized to baseline, FIG. 4; for Viability of primary murine kidney cells after ischemic stress: ischemic stress induced by metabolic inhibitors, FIGS. 5, 7
Experimental: FIG. 2 depicts an NPMB1 Alanine Scan. Relative kidney cell survival rate after 70 min ischemic stress in vitro induced by metabolic inhibitors in the presence of NPMB1 (control) vs. 19 different NPMBx polypeptides with single alanine substitutions (2 additional NPMB1 alanine residues were not substituted). Residue numbers (x axis) reflect Bax sequence that binds human NPM1; Survival data are normalized to NPMB1; post-ischemic kidney cell survival is shown in tertiles: (left-most group: 5-40% survival; middle-group: 55-70% and third group: 80-95%); n=3 separate experiments.
Relative kidney cell survival rate after 70 min ischemic stress in vitro induced by transient exposure to metabolic inhibitors in the presence of NPMB polypeptides (Agents 2, 5, 7, 14 that reflect alanine scan polypeptides A173, A187, A179, A176) vs. a non—specific polypeptide (GFP fragment). Survival data normalized to baseline (no stress); *P<0.01vs. baseline; t P<0.05 vs. stress; data represent 3 separate experiments; error bars represent mean+SD.
FIGS. 13A-13B depict the cytoprotective effects of select therapeutic peptides during ischemic stress in vitro. Primary murine proximal tubule epithelial cells (PTEC) were transiently exposed to metabolic inhibitors for 60 min and allowed to recover for 6 hr. to simulate ischemia in vivo; MTT assay estimated cell survival. “Control” (open bars); is a GFP fragment of similar size to the therapeutic peptides was used a negative control; NPMB1 (prototype) serves as a positive control. […] All peptides contained the nuclear localizing sequence (NLS) to enhance peptide delivery to the kidney, a beta linker and both carboxy-and amino terminal modifications to reduce susceptibility to protease digestion; data are mean+standard error; n=3 separate experiments. Figure discloses SEQ ID NOS 139, 134-135, 128, 127, and 138, respectively, in order of appearance.
Structure activity relationships of NPMB1 derivatives were determined through alanine scanning In these studies, 19 polypeptides were produced using methods shown in FIGS. 8-11 and their effect of kidney cell survival after ischemic stress was characterized using the MTT cell survival assay. Based on determination of relative kidney cell survival rate, polypeptides were grouped according to activity as shown in FIG. 2 (orange: 5-40% survival; blue 55-70% survival, or green 80-95% survival).

Chain of human NPM1 (P06748 whole entry, the tested form may be a part): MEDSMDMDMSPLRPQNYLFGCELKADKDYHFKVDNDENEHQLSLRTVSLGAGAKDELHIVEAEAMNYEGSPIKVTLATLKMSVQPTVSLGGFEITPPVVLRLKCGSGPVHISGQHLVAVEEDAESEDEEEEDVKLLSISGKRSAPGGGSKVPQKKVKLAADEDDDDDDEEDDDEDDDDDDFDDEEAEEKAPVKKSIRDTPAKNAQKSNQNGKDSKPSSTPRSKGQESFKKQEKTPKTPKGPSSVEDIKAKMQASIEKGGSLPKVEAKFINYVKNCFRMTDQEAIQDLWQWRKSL

- Kd / NPM1 binding affinity in words [1]: relatively low Kd
Substance: Ac-KKRRRKKRRRKKRRRK-Bala-TVTIFVAGVLTASLTIWKKMG-OH (Ac-KKRRRKKRRRKKRRRK[βAla]TVTIFVAGVLTASLTIWKKMG-OH; SMILES CC[C@H](C)[C@H](NC(=O)[C@@H](NC(=O)[C@H](CC(C)C)NC(=O)[C@H](CO)NC(=O)[C@H](C)NC(=O)[C@@H](NC(=O)[C@H](CC(C)C)NC(=O)[C@@H](NC(=O)CNC(=O)[C@H](C)NC(=O)[C@@H](NC(=O)[C@H](Cc1ccccc1)NC(=O)[C@@H](NC(=O)[C@@H](NC(=O)[C@@H](NC(=O)[C@@H](NC(=O)CCNC(=O)[C@H](CCCCN)NC(=O)[C@H](CCCNC(=N)N)NC(=O)[C@H](CCCNC(=N)N)NC(=O)[C@H](CCCNC(=N)N)NC(=O)[C@H](CCCCN)NC(=O)[C@H](CCCCN)NC(=O)[C@H](CCCNC(=N)N)NC(=O)[C@H](CCCNC(=N)N)NC(=O)[C@H](CCCNC(=N)N)NC(=O)[C@H](CCCCN)NC(=O)[C@H](CCCCN)NC(=O)[C@H](CCCNC(=N)N)NC(=O)[C@H](CCCNC(=N)N)NC(=O)[C@H](CCCNC(=N)N)NC(=O)[C@H](CCCCN)NC(=O)[C@H](CCCCN)NC(C)=O)[C@@H](C)O)C(C)C)[C@@H](C)O)[C@@H](C)CC)C(C)C)C(C)C)[C@@H](C)O)[C@@H](C)O)C(=O)N[C@@H](Cc1c[nH]c2ccccc12)C(=O)N[C@@H](CCCCN)C(=O)N[C@@H](CCCCN)C(=O)N[C@@H](CCSC)C(=O)NCC(=O)O) [NPMB1-I-010]

Substance: Ac-PKKKRKV-Bala-AVTIFVAGVLTASLTIWKKMG-OMe [NPMB1-III-001]
- Effect of the residue (single alanine substitution) on cytoprotection / cell survival after ischemic stress [2]: moderate cytoprotective effects

Substance: Ac-PKKKRKV-Bala-QVTIAVAGVLTASLTIWKKMG-OMe [NPMB1-X-009]
- Cytoprotective effects during ischemic stress in vitro ([2]; peptides 100 nM, metabolic inhibitors 60 min, recovery 6 hr, vs GFP negative control, FIG. 13): most robust protection

Substance: Ac-PKKKRKV-Bala-QVTIFVAGVLTASLTIWKKMG-OMe [NPMB1-V-004]
- Degree of cytoprotection during ischemic stress [2]: highly effective

Substance: Ac-PKKKRKV-Bala-TATIFVAGVLTASLTIWKKMG-OMe [NPMB1-III-002]
- Protection of primary kidney proximal tubule cells from ischemic stress (relative kidney cell survival rate) [2]: protect
- Degree of cytoprotection during ischemic stress [2]: substantial protection
- Effect of the residue (single alanine substitution) on cytoprotection / cell survival after ischemic stress [2]: minimal effect on cell survival
- Viability of primary murine kidney cells after ischemic stress ([2]; listed as Agent 2): substantially improve the viability; also recorded: protect against ischemic injury

Substance: Ac-PKKKRKV-Bala-TVAIFVAGVLTASLTIWKKMG-OMe [NPMB1-III-003]
- Effect of the residue (single alanine substitution) on cytoprotection / cell survival after ischemic stress [2]: critical for cytoprotection

Substance: Ac-PKKKRKV-Bala-TVTAFVAGVLTASLTIWKKMG-OMe [NPMB1-III-004]
- Effect of the residue (single alanine substitution) on cytoprotection / cell survival after ischemic stress [2]: moderate cytoprotective effects

Substance: Ac-PKKKRKV-Bala-TVTIAVAAVLTASLTIWKKMG-OMe [NPMB1-X-008]
- Kd / NPM1 binding affinity in words [1]: relatively low Kd values

Substance: Ac-PKKKRKV-Bala-TVTIAVAGVLTASLTIWKKMG-OMe [NPMB1-III-005]
- Protection of primary kidney proximal tubule cells from ischemic stress (relative kidney cell survival rate) [2]: protect
- Degree of cytoprotection during ischemic stress [2]: substantial protection
- Effect of the residue (single alanine substitution) on cytoprotection / cell survival after ischemic stress [2]: minimal effect on cell survival
- Viability of primary murine kidney cells after ischemic stress ([2]; listed as Agent 5): substantially improve the viability; also recorded: protect against ischemic injury

Substance: Ac-PKKKRKV-Bala-TVTIFAAGVLTASLTIWKKMG-OMe [NPMB1-III-006]
- Effect of the residue (single alanine substitution) on cytoprotection / cell survival after ischemic stress [2]: critical for cytoprotection

Substance: Ac-PKKKRKV-Bala-TVTIFVAAVLTASLTIWKKMG-OMe [NPMB1-III-007]
- Protection of primary kidney proximal tubule cells from ischemic stress (relative kidney cell survival rate) [2]: protect
- Degree of cytoprotection during ischemic stress [2]: substantial protection
- Effect of the residue (single alanine substitution) on cytoprotection / cell survival after ischemic stress [2]: minimal effect on cell survival
- Viability of primary murine kidney cells after ischemic stress ([2]; listed as Agent 7): substantially improve the viability; also recorded: protect against ischemic injury

Substance: Ac-PKKKRKV-Bala-TVTIFVAGALTASLTIWKKMG-OMe [NPMB1-III-008]
- Effect of the residue (single alanine substitution) on cytoprotection / cell survival after ischemic stress [2]: moderate cytoprotective effects

Substance: Ac-PKKKRKV-Bala-TVTIFVAGVATASLTIWKKMG-OMe [NPMB1-III-009]
- Effect of the residue (single alanine substitution) on cytoprotection / cell survival after ischemic stress [2]: critical for cytoprotection

Substance: Ac-PKKKRKV-Bala-TVTIFVAGVLAASLTIWKKMG-OMe [NPMB1-III-010]
- Effect of the residue (single alanine substitution) on cytoprotection / cell survival after ischemic stress [2]: critical for cytoprotection

Substance: Ac-PKKKRKV-Bala-TVTIFVAGVLTAALTIWKKMG-OMe [NPMB1-III-011]
- Effect of the residue (single alanine substitution) on cytoprotection / cell survival after ischemic stress [2]: critical for cytoprotection

Substance: Ac-PKKKRKV-Bala-TVTIFVAGVLTASATIWKKMG-OMe [NPMB1-III-012]
- Effect of the residue (single alanine substitution) on cytoprotection / cell survival after ischemic stress [2]: moderate cytoprotective effects
- Viability of primary murine kidney cells after ischemic stress ([2]; listed as Agent 12): substantially improve the viability; also recorded: protect against ischemic injury

Substance: Ac-PKKKRKV-Bala-TVTIFVAGVLTASLAIWKKMG-OMe [NPMB1-III-013]
- Effect of the residue (single alanine substitution) on cytoprotection / cell survival after ischemic stress [2]: moderate cytoprotective effects

- Kd / NPM1 binding affinity in words [1]: low Kd values (except NPMB1-V-003
Substance: Ac-PKKKRKV-Bala-TVTIFVAGVLTASLQIWKKMG-OMe [NPMB1-V-003]

Substance: Ac-PKKKRKV-Bala-TVTIFVAGVLTASLTAWKKMG-OMe [NPMB1-III-014]
- Protection of primary kidney proximal tubule cells from ischemic stress (relative kidney cell survival rate) [2]: protect
- Degree of cytoprotection during ischemic stress [2]: substantial protection
- Effect of the residue (single alanine substitution) on cytoprotection / cell survival after ischemic stress [2]: minimal effect on cell survival

Substance: Ac-PKKKRKV-Bala-TVTIFVAGVLTASLTIAKKMG-OMe [NPMB1-III-015]
- Effect of the residue (single alanine substitution) on cytoprotection / cell survival after ischemic stress [2]: critical for cytoprotection

Substance: Ac-PKKKRKV-Bala-TVTIFVAGVLTASLTIWAKMG-OMe [NPMB1-III-016]
- Effect of the residue (single alanine substitution) on cytoprotection / cell survival after ischemic stress [2]: critical for cytoprotection

Substance: Ac-PKKKRKV-Bala-TVTIFVAGVLTASLTIWKAMG-OMe [NPMB1-III-017]
- Effect of the residue (single alanine substitution) on cytoprotection / cell survival after ischemic stress [2]: critical for cytoprotection

Substance: Ac-PKKKRKV-Bala-TVTIFVAGVLTASLTIWKKAG-OMe [NPMB1-III-018]
- Effect of the residue (single alanine substitution) on cytoprotection / cell survival after ischemic stress [2]: moderate cytoprotective effects

Substance: Ac-PKKKRKV-Bala-TVTIFVAGVLTASLTIWKKMA-OMe [NPMB1-III-019]
- Effect of the residue (single alanine substitution) on cytoprotection / cell survival after ischemic stress [2]: critical for cytoprotection

Substance: Ac-PKKKRKV-Bala-TVTLFVAGVLTASLTAWKKMG-OMe [NPMB1-X-002]
- Kd / NPM1 binding affinity in words [1]: relatively low Kd values
